In US8022248B2, “Substituted acids for the treatment of respiratory diseases” (AstraZeneca AB, priority 2004, dated 2011):

The compounds below were run against T1, rhCRTh2 (Homo sapiens, UniProt Q9Y5Y4) (assay: Ligand binding assay: [3H]PGD2 binding to HEK cell membranes containing CRTh2 (SPA beads)). Settings: [3H]PGD2 displacement, HEK cell membranes expressing rhCRTh2/Gα16, 2 hours room temperature.
T1 construct: expressed in transfected cells; host or cells: HEK cells (membrane preparation)
T1 sequence (Q9Y5Y4 1-395): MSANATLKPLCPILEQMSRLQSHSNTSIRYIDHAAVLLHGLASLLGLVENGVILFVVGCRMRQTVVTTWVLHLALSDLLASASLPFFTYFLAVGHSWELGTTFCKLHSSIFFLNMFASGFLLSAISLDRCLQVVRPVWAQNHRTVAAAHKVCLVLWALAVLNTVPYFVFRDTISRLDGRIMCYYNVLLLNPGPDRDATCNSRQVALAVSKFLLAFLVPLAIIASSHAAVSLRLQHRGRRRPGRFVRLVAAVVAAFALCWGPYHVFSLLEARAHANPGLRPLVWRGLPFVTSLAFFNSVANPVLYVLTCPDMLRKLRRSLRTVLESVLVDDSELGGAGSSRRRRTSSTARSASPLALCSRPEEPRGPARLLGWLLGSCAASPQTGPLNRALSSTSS
Experimental: [^3H]PGD2 was purchased from Perkin Elmer Life Sciences with a specific activity of 100-210 Ci/mmol. All other chemicals were of analytical grade.
HEK cells expressing rhCRTh2/Gα16 were routinely maintained in DMEM containing 10% Foetal Bovine Serum (HyClone), 1 mg/ml geneticin, 2 mM L-glutamine and 1% non-essential amino acids. For the preparation of membranes, the adherent transfected HEK cells were grown to confluence in two layer tissue culture factories (Fisher, catalogue number TKT-170-070E). Maximal levels of receptor expression were induced by addition of […] sodium butyrate for the last 18 hours of culture. The adherent cells were washed once with phosphate buffered saline (PBS, 50 ml per cell factory) and detached by the addition of 50 ml per cell factory of ice-cold membrane homogenisation buffer [20 mM HEPES (pH 7.4), 0.1 mM dithiothreitol, 1 mM EDTA, 0.1 mM phenyl methyl sulphonyl fluoride and 100 μg/ml bacitracin]. […] The final pellet was re-suspended in 4 ml of membrane homogenisation buffer per cell factory used and the protein content determined. […]
All assays were performed in Corning clear bottomed, white 96-well NBS plates (Fisher). […] (The optimum coating concentrations were determined for each batch of membranes) The beads were pelleted by centrifugation (800×g for 7 minutes at 4° C.), washed once with assay buffer (50 mM HEPES pH 7.4 containing 5 mM magnesium chloride) and finally re-suspended in assay buffer at a bead concentration of 10 mg/ml.
Each assay contained 20 μl of 6.25 nM [^3H]PGD2, 20 μl membrane saturated SPA beads both in assay buffer and 10 μl of compound solution or 13,14-dihydro-15-keto prostaglandin D2 (DK-PGD2, for determination of non-specific binding, Cayman chemical company). […] The assay plate was incubated at room temperature for 2 hours and counted on a Wallac Microbeta liquid scintillation counter (1 minute per well).

| IC50 | Compound |
| --- | --- |
| 0.794 nM | CCS(=O)(=O)c1ccc(Oc2cc(Cl)ccc2SCC(=O)O)c(Cl)c1 [Example 7, ({4-Chloro-2-[2-chloro-4-(ethylsulfonyl)phenoxy]phenyl}thio)acetic acid] |
| 2.51 nM | CCS(=O)(=O)c1ccc(Sc2cc(Cl)ccc2SCC(=O)O)c(Cl)c1 [Example 5, [(4-Chloro-2-{[2-chloro-4-(ethylsulfonyl)phenyl]thio}phenyl)thio]acetic acid] |
| 2.51 nM | CCS(=O)(=O)Nc1ccc(Oc2cc(Cl)ccc2NCC(=O)O)c(Cl)c1 [Example 37, N-(4-Chloro-2-{2-chloro-4-[(ethylsulfonyl)amino]phenoxy}phenyl)glycine] |
